IC50 data for 30 compounds are collected here from patent US7432392B2, “Ester derivatives and medical use thereof” (Japan Tobacco Inc., priority 2003, dated 2008).

SMILES strings stand for the structures. A value given as a limit tells only on which side of the number the result lay.

For the test, the target named is T1, Microsomal triglyceride transfer protein (MTP) from bovine liver (Bos taurus, UniProt P55156).
T1 construct: the purified MTP was used for the test; from tissue; host or cells: bovine liver
T1 sequence (P55156 12-887): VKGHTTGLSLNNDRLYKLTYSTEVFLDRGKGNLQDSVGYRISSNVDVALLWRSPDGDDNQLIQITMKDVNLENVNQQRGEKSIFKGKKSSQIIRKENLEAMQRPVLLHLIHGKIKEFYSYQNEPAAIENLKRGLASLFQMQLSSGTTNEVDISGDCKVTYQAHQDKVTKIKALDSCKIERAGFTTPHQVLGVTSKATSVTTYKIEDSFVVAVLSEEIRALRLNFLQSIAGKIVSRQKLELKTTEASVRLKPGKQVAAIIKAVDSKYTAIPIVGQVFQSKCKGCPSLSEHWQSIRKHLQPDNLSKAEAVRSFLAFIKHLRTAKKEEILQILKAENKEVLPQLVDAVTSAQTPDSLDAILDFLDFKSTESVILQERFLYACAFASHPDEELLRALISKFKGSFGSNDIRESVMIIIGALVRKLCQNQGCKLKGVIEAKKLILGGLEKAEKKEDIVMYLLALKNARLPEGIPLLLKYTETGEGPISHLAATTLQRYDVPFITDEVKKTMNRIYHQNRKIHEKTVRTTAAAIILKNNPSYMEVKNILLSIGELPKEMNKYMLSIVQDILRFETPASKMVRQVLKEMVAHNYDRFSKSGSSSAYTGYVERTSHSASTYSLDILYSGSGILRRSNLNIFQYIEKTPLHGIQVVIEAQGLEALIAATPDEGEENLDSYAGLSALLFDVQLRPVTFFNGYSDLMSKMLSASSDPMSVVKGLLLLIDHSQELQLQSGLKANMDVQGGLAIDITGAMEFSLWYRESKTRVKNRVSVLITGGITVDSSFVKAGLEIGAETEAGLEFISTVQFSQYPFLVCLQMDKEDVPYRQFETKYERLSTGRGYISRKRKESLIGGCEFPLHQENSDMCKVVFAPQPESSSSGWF
T1 sequence (P05307 21-510 partner): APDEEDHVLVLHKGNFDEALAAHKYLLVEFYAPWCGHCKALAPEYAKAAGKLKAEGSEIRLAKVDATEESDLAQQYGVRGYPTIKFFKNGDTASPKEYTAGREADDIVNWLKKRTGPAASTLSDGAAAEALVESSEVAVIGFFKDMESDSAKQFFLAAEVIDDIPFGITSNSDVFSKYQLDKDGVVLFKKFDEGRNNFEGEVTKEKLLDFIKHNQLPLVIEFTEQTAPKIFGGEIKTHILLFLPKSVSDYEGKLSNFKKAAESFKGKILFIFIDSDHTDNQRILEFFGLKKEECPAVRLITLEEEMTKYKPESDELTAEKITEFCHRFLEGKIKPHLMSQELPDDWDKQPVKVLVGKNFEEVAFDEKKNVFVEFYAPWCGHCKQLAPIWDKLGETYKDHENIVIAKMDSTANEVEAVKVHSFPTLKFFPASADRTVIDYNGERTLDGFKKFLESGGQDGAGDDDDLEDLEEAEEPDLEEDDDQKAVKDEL
Nature of the test: Inhibition of interliposomal triglyceride (TG) transfer activity by MTP. The settings on record: MTP-mediated TG transfer between donor and acceptor liposomes, 37° C., one hour. It counts as biochemical. How it is done:
Microsomal triglyceride transfer protein (MTP) from bovine liver was partially purified in such a way described below. A buffer (50 mM Tris, 250 mM sucrose, 1 mM EDTA, 0.02% NaN3 (pH 7.4)) for making a homogenate preparation was added to bovine liver, and the mixture was homogenated under ice-cooling, then centrifuged at 10,000×g (4° C., 30 minutes) The supernatant was adjusted to pH 5.1 with hydrochloric acid, and stirred for 30 minutes. The solution was further centrifuged at 10,000×g (4° C., 30 minutes), and 1 mM Tris buffer was added to the precipitated residue, and the mixture was adjusted to pH 8.6 with sodium hydroxide. After addition of 2.7 M ammonium sulfate solution, the mixture was stirred for 30 minutes, then centrifuged at 10,000×g (4° C., 40 minutes). The resulting supernatant was served as a crude extraction fraction of MTP and stored at −80° C. under freezing. In its practical use, the crude extraction fraction of MTP was purified by column chromatography on diethylaminoethyl (DEAE) Sepharose using FPLC (Fast Performance Liquid Chromatography) system, and the purified MTP was used for the test.
Small unilamellar-vesicle (SUV) liposome (donor, 0.25 mol % triolein, 5 mol % cardiolipin) labeled with ^14C-triolein and non-labeled SUV liposome (acceptor, 0.25 mol % triolein) were prepared. A fixed amount of donor and acceptor, and MTP were mixed with a sample dissolved in DMSO or with DMSO. The mixture was incubated in a 15 mM Tris hydrochloride buffer (pH 7.4) containing 40 mM sodium chloride, 1 mM EDTA (ethylenediaminetetraacetic acid), 0.02% NaN3 and 0.5% bovine serum albumin at 37° C. for one hour. After completion of the incubation, a suspension of DEAE cellulose (50% v/v) in 15 mM Tris hydrochloride buffer (pH 7.4) was added to the above solution, and the mixture was centrifuged to separate the donor and the acceptor. The radioactivity in the acceptor was measured by liquid scintillation counter. The value obtained by subtracting the radioactivity in the blank from the amount of radioactivity in the acceptor of a DMSO group was determined as MTP-mediated TG transfer activity, and it was compared with the value obtained by subtracting the radioactivity in the blank from the radioactivity in a sample group. The blank was prepared by adding 15 mM Tris-HCl buffer (pH 7.4) in place of MTP. Inhibition rate (%) was calculated from the values obtained according to the following equation.
Inhibition rate (%)=100×(1 minus ((radioactivity of sample group minus radioactivity of blank group)/(radioactivity of DMSO group minus radioactivity of blank group))). 50% Inhibition rate (IC50) was determined on the basis of the above equation.
Take `CCOC(=O)C(COC(=O)Oc1c(F)cc(NC(=O)c2ccccc2-c2ccc(C(F)(F)F)c(F)c2)c(C(=O)N(C)C)c1F)(C(=O)OCC)c1cccs1` [Example 2-40]: the IC50 is below 0.01 µM.

`CCOC(=O)C(COC(=O)Oc1c(F)cc(NC(=O)c2ccccc2-c2ccc(C(F)(F)F)cc2)c(C(=O)N(C)C)c1F)(C(=O)OCC)c1cccs1` [Example 2-26] came in with an IC50 below 0.01 µM.

As for `CCOC(=O)C(COC(=O)Oc1ccc(NC(=O)c2ccc(C)cc2-c2ccc(C(F)(F)F)cc2)c(C(=O)N(C)C)c1)(C(=O)OCC)c1cccs1` [Example 2-9], the 50% inhibitory concentration (IC50) was below 0.01 µM.

Take `CCNC(=O)C(CCCC(=O)Oc1c(F)cc(NC(=O)c2ccccc2-c2ccc(C(F)(F)F)cc2)c(C(=O)N(C)C)c1F)(C(=O)NCC)c1cccs1` [Example 3-17]: the concentration for half-maximal inhibition (IC50) fell in the range of 0.01 to 0.1 µM.

For `CCOC(=O)C(CC(=O)OCc1ccc(NC(=O)c2ccccc2-c2ccc(C(F)(F)F)cc2)c(C(=O)N(C)C)c1)(C(=O)OCC)c1ccccn1` [Example 3-23], the IC50 was below 0.01 µM.

With `CCOC(=O)C(CCC(=O)Oc1c(F)cc(NC(=O)c2ccc(C)cc2-c2ccc(C(F)(F)F)cc2)c(C(=O)N(C)C)c1F)(C(=O)OCC)c1cccs1` [Example 3-21], the IC50 was below 0.01 µM.

`CCOC(=O)C(COC(=O)Oc1cc(C(=O)N(C)C)c(NC(=O)c2ccccc2-c2ccc(C(F)(F)F)cc2)cc1Cl)(C(=O)OCC)c1ccccc1` [Example 2-6] registered an IC50 below 0.01 µM.

Compound `CCOC(=O)C(COC(=O)Oc1c(F)cc(NC(=O)c2cccc(OC)c2-c2ccc(C(F)(F)F)cc2)c(C(=O)N(C)C)c1F)(C(=O)OCC)c1cccs1` [Example 2-36] gave an IC50 below 0.01 µM.

Consider `CCOC(=O)C(COC(=O)Oc1c(F)cc(NC(=O)c2ccccc2-c2ccc(C(F)(F)F)cc2)c(C(=O)N(C)CC(=O)OC)c1F)(C(=O)OCC)c1cccs1` [Example 2-42], for which the IC50 fell in the range of 0.01 to 0.1 µM.

The compound `CCOC(=O)C(COC(=O)Cc1ccc(NC(=O)c2ccc(C)cc2-c2ccc(C(F)(F)F)cc2)c(OC(C)=O)c1)(C(=O)OCC)c1ccccc1` [Example 1-5] showed an IC50 below 0.01 µM.

With `CCCN(C)C(=O)c1cc(OC(=O)OCC(C(=O)OCC)(C(=O)OCC)c2ccccc2)ccc1NC(=O)c1ccccc1-c1ccc(C(F)(F)F)cc1` [Example 2-13], the IC50 was below 0.01 µM.

Compound `CCOC(=O)C(COC(=O)Oc1c(F)cc(NC(=O)c2ccccc2-c2ccc(C(F)(F)F)cc2)c(OC(=O)N(C)C)c1F)(C(=O)OCC)c1cccs1` [Example 2-50] gave an IC50 of 0.01 to 0.1 µM.

Compound `CCN(C)C(=O)C(CCC(=O)Oc1c(F)cc(NC(=O)c2ccccc2-c2ccc(C(F)(F)F)cc2)c(C(=O)N(C)C)c1F)(C(=O)N(C)CC)c1ccccc1` [Example 3-18] showed an IC50 of 0.01 to 0.1 µM.

For the compound `CCOC(=O)C(COC(=O)OCc1ccc(NC(=O)c2ccccc2-c2ccc(C(F)(F)F)cc2)c(C(=O)N(C)C)c1)(C(=O)OCC)c1ccccc1` [Example 2-5], the IC50 is below 0.01 µM.

Consider `CCOC(=O)C(COC(=O)Oc1ccc(NC(=O)c2ccccc2-c2ccc(C(F)(F)F)cc2)c(C(=O)N(C)CC)c1)(C(=O)OCC)c1ccccc1` [Example 2-12], for which the 50% inhibitory concentration (IC50) was below 0.01 µM.

Consider `CCOC(=O)C(COC(=O)Oc1c(F)cc(NC(=O)c2ccccc2-c2ccc(C(F)(F)F)cc2)c(C(=O)N(C)C)c1F)(C(=O)OCC)c1ccccc1` [Example 2-20], for which the IC50 lay within 0.01 to 0.1 µM.

On to `CCOC(=O)C(COC(=O)Oc1ccc(NC(=O)c2cnc(NC)nc2-c2ccc(C(F)(F)F)cc2)c(C(=O)N(C)C)c1)(C(=O)OCC)c1ccccc1` [Example 2-27], for which the IC50 lay within 0.01 to 0.1 µM.

`CCOC(=O)C(COC(=O)Oc1c(F)cc(NC(=O)c2ccc(OC)cc2-c2ccc(C(F)(F)F)cc2)c(C(=O)N(C)C)c1F)(C(=O)OCC)c1cccs1` [Example 2-37] yielded a 50% inhibitory concentration (IC50) of 0.01 to 0.1 µM.

`CCOC(=O)C(COC(=O)Oc1ccc(NC(=O)c2ccccc2-c2ccc(C(F)(F)F)cc2)c(C(=O)N(C)C)c1Cl)(C(=O)OCC)c1ccccc1` [Example 2-22] returned an IC50 below 0.01 µM.

`CCNC(=O)C(COCC(=O)OCc1ccc(NC(=O)c2ccccc2-c2ccc(C(F)(F)F)cc2)c(C(=O)N(C)C)c1)(C(=O)NCC)c1ccccc1` [Example 3-24] had an IC50 below 0.01 µM.

`CCOC(=O)C(COC(=O)Oc1c(F)cc(NC(=O)c2cccc(C)c2-c2ccc(C(F)(F)F)cc2)c(C(=O)N(C)C)c1F)(C(=O)OCC)c1cccs1` [Example 2-34] registered an IC50 below 0.01 µM.

In turn, `CCOC(=O)C(CCC(=O)Oc1ccc(NC(=O)c2ccccc2-c2ccc(C(F)(F)F)cc2)c(C(=O)N(C)C)c1)(C(=O)OCC)c1ccccc1` [Example 3, 2-Ethoxycarbonyl-2-phenylpentanedioic acid 5-{3-dimethylcarbamoyl-4-[(4′-trifluoromethylbiphenyl-2-carbonyl)amino]phenyl}ester 1-ethyl ester] displayed an IC50 below 0.01 µM.

As to `CCOC(=O)C(COC(=O)Oc1ccc(NC(=O)c2ccc(C)nc2-c2ccc(C(F)(F)F)cc2)c(C(=O)N(C)C)c1)(C(=O)OCC)c1ccccc1` [Example 2-19], the IC50 was below 0.01 µM.

As for `CCOC(=O)C(COC(=O)Oc1c(F)cc(NC(=O)c2cc(C)ccc2-c2ccc(C(F)(F)F)cc2)c(C(=O)N(C)C)c1F)(C(=O)OCC)c1cccs1` [Example 2-35], the IC50 lay in the range of 0.01 to 0.1 µM.

With `CCOC(=O)C(COC(=O)Oc1ccc(NC(=O)c2ccc(C)nc2-c2ccc(C(F)(F)F)cc2)c(C(=O)N(C)C)c1)(C(=O)OCC)c1ccccn1` [Example 2-23], the IC50 is below 0.01 µM.

`CCOC(=O)C(CCC(=O)Oc1c(F)cc(NC(=O)c2ccc(C)cc2-c2ccc(C(F)(F)F)cc2)c(C(=O)N(C)C)c1F)(C(=O)OCC)c1ccccc1` [Example 3-22] had an IC50 below 0.01 µM.

`CCOC(=O)C(CCC(=O)Oc1c(F)cc(NC(=O)c2ccccc2-c2ccc(C(F)(F)F)cc2)c(C(=O)N(C)C)c1F)(C(=O)OCC)c1cccs1` [Example 3-20] showed an IC50 below 0.01 µM.

`CCOC(=O)C(CCC(=O)Oc1c(F)cc(NC(=O)c2ccccc2-c2ccc(C(F)(F)F)cc2)c(C(=O)NC)c1F)(C(=O)OCC)c1ccccc1` [Example 3-10] yielded a half-maximal inhibitory concentration (IC50) below 0.01 µM.

Regarding `CCOC(=O)C(COC(=O)Oc1c(F)cc(NC(=O)c2ccccc2-c2ccc(C(F)(F)F)cc2)c(C(=O)N(C)C)c1F)(C(=O)OCC)c1nccs1` [Example 2-44], the IC50 fell in the range of 0.01 to 0.1 µM.

As for `CCN(C)C(=O)C(CCCC(=O)Oc1c(F)cc(NC(=O)c2ccccc2-c2ccc(C(F)(F)F)cc2)c(C(=O)N(C)C)c1F)(C(=O)N(C)CC)c1ccccc1` [Example 3-19], the IC50 lay in the range of 0.1 to 1 µM.

Usually IC50 stands for the point on the concentration scale where inhibition reaches its midpoint. A higher IC50 goes with a need for much substance.
